According to patent publication US20120077753A1, “JNK INHIBITORS FOR USE IN TREATING SPINAL MUSCULAR ATROPHY” (priority 2009, published 2012):
Blank lines part the entries; values can stand above or below the compound they belong to.

Tests used:
JNK3 = JNK3 (Homo sapiens, UniProt P53779); conditions: cited from earlier work
JNK-1, -2, and -3 = conditions: ATP-competitive reversible inhibitor; cited from earlier work
CD4+ CD8+ thymocytes = conditions: animal studies; cited from earlier work
phosphorylation of c-Jun [1] = test: Phospho-c-Jun staining in primary neurons lacking SMN; assay type: cell-based, mice; conditions: neurons lacking SMN (siRNA-Smn), vs untreated with JNK inhibitor
Method: (§1) Primary neurons transfected with scrambled siRNA (Control) and SMN specific siRNA (siRNA-Smn) were treated with DMSO or SP600125 after 36 h (post-transfection). Neurons were incubated for additional 60 h, fixed and stained with antibodies to Tubulin and phospho-c-Jun. Stained neurons were examined by confocal microscopy. To determine whether JNK activity is required for neurodegeneration, the effect of JNK inhibitor (SP600125) was examine on degeneration of neurons caused by SMN-deficiency. […] The knockdown of SMN neurons treated with solvent (DMSO) results in degeneration of neurons as expected. […] To determine whether the neuroprotection is a result of JNK inhibition achieved by treatment of SP600125, the phosphorylation of c-Jun was examined. […] To determine whether activation of JNK is normal in neurons treated with siRNA and JNK inhibitor, phospho-JNK was examined because JNK is activated by phosphorylation.

Primary neurons = test: Degeneration of primary neurons transfected with siRNA-Smn or scrambled siRNA (tubulin staining, confocal microscopy); assay type: cell-based, mice
Method: as §1, with “Primary neurons transfected with scrambled siRNA (Control) and SMN specific siRNA (siRNA-Smn) were treated with DMSO or SP600125 after 36 h (post-transfection). Neurons were incubated for additional 60 h, fixed and stained with antibodies to Tubulin and phospho-JNK. Stained neurons were examined by confocal microscopy. Primary” for “Primary”

tumor necrosis factor-α = conditions: animal studies; cited from earlier work
phosphorylation of c-Jun [2] = conditions: in cells; cited from earlier work
phospho-JNK = test: Phospho-JNK staining in primary neurons lacking SMN; assay type: cell-based, mice; conditions: neurons treated with siRNA+SP600125
Method: as §1, with “phospho-JNK.” for “phospho-c-Jun.”

[3] = test system: a range of kinases and enzymes; conditions: cited from earlier work

Chain of JNK3 (P53779 whole entry, species assumed): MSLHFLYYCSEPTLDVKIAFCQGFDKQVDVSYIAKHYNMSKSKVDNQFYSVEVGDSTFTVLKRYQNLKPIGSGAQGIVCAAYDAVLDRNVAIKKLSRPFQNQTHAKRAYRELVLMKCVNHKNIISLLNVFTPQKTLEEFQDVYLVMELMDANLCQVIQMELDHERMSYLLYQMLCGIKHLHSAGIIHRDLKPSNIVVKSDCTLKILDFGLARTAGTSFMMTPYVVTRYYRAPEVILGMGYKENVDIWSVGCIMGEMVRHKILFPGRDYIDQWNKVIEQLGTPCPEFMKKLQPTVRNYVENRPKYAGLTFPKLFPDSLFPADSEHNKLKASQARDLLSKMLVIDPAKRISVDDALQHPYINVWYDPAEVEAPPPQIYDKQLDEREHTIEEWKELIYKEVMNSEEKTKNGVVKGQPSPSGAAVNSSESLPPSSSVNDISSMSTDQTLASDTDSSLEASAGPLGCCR

SMILES: Cc1ccc(OCCCCCNc2cccc3c2C(=O)c2cccc4[nH]nc-3c24)cc1 [7-(5-(p-Tolyloxy)pentyl)amino-2H-anthra[1,9-cd]pyrazol-6-one]
JNK3 selectivity (JNK3): selective inhibitors of JNK3

neuron degeneration in control experiments (Primary neurons; control neurons, SP600125): did not cause neuron degeneration
SMILES: O=C1c2ccccc2-c2n[nH]c3cccc1c23 [SP600125, Anthra[1,9-cd]pyrazol-6(2H)-on]
Ki (JNK-1, -2, and -3): 190 nM
anti-CD3-induced apoptosis of CD4+ CD8+ thymocytes (CD4+ CD8+ thymocytes): prevented
phosphorylation of c-Jun (phosphorylation of c-Jun [1]): marked reduction in the phosphorylation of c-Jun
degeneration of neurons caused by SMN-deficiency (Primary neurons; neurons transfected with siRNA-Smn, inhibitor added 36 h post-transfection, additional 60 h, vs solvent (DMSO)): marked reduction in degeneration
bacterial lipopolysaccharide-induced expression of tumor necrosis factor-α (tumor necrosis factor-α): inhibited
inhibition of the phosphorylation of c-Jun (phosphorylation of c-Jun [2]): dose-dependent inhibition
phospho-JNK (JNK activation) (phospho-JNK): presence of phospho-JNK
selectivity vs. a range of kinases and enzymes tested [3]: > 20 fold

SMILES: O=C1c2c(CCCCCNc3ccccc3)cccc2-c2n[nH]c3cccc1c23 [7-(5-7V-Phenylaminopentyl)-2H-anthra[1,9-cd]pyrazol-6-one]
JNK3 selectivity (JNK3): selective inhibitors of JNK3

SMILES: O=C(NCCCCCCCNc1cccc2c1C(=O)c1cccc3[nH]nc-2c13)c1ccccc1 [7-(7-7V-Benzoylaminoheptyl)amino-2H-anthra[1,9-cd]pyrazol-6-one]
JNK3 selectivity (JNK3): selective inhibitors of JNK3
